{
  "source": "patent US6187787A",
  "about": "“Bis(9-aminoacridine) DNA intercalating agents having antitumor activity” (Trustees of Dartmouth College, priority 2000, dated 2001)",
  "data": [
    {"system": "calf thymus DNA", "assay": "Thermal denaturation studies on calf thymus DNA", "assay_type": "binding", "settings": "increase of denaturation temperature", "procedure": "Thermal denaturation studies were performed on calf thymus DNA. Addition of the compounds of the present invention to the calf thymus DNA caused the denaturation temperature to increase approximately 11° C. (see Table 1).", "units": {"ΔTm": "°C"}, "values": [
      {"smiles": "c1ccc2c(NC3CCC(CC4CCC(Nc5c6ccccc6nc6ccccc56)CC4)CC3)c3ccccc3nc2c1", "note": "(centres unmarked)", "ΔTm": "25.9 ± 4.1"},
      {"smiles": "CC(C)(c1ccc(Oc2ccc(Nc3c4ccccc4nc4ccccc34)cc2)cc1)c1ccc(Oc2ccc(Nc3c4ccccc4nc4ccccc34)cc2)cc1", "ΔTm": "11.6 ± 0.4"},
      {"smiles": "CC(C)(c1ccc(Nc2c3ccccc3nc3ccccc23)cc1)c1ccc(C(C)(C)c2ccc(Nc3c4ccccc4nc4ccccc34)cc2)cc1", "ΔTm": "10.9 ± 0.31"}
    ]},
    {"system": "L1210 murine leukemia cells", "assay": "Cytotoxicity in the murine leukemia cell line L1210 (growth inhibition, 72 hours)", "assay_type": "cell-based", "settings": "Mus musculus, L1210, 72 h, read-out: ID50", "procedure": "(§1) Using the methodologies disclosed by Jaycox et al. J. Heterocyclic. […] A number of intercalating agents currently in clinical use for treatment of cancer were also evaluated in this assay for comparison.\n(§2) L1210 murine leukemia cells were routinely maintained as suspension cultures in McCoy's 5A medium supplemented with 10% horse serum, glutamine, penicillin, and streptomycin and grown in a humidified environment of 10% carbon dioxide and 90% air at 37° C. Compounds were dissolved in dimethyl sulfoxide (DMSO) and 40 μg was added to 4 ml of L1210 cells (10^5 cells/tube) to attain final drug concentrations of 0.01, 0.1 and 10 μg/ml of culture. After 72 hours of continuous exposure to the drug, the cell concentration was determined by a Coulter counter (Model ZBF, Hialeah, Fla.). Growth inhibition was calculated for each drug concentration using the following formula:\n(§3) % growth inhibition=(1-A)×100, wherein A=[cell # treated/cell # in\n(§4) The growth inhibition data were then used to calculate the ID50 value (the calculated drug concentration required to inhibit cell growth by 50% of control).", "units": {"IC50": "nM"}, "values": [
      {"smiles": "Cn1cc(NC(=O)c2cc(NC(=O)c3cc(NC=O)cn3C)cn2C)cc1C(=O)NCCC(=N)N", "note": "[distamycin-A, reference compound]", "IC50": 6000},
      {"smiles": "CC[n+]1c(-c2ccccc2)c2cc(N)ccc2c2ccc(N)cc21", "note": "[ethidium bromide, reference compound]", "IC50": 4100}
    ]},
    {"system": "L1210 murine leukemia cells", "assay": "Cytotoxicity in the murine leukemia cell line L1210 (growth inhibition, 72 hours)", "assay_type": "cell-based", "settings": "Mus musculus; L1210 murine leukemia; 72 hours of continuous exposure; concentration which inhibits growth of 50% of the cells; read-out: ID50 (the source's name)", "procedure": "as §1, §2, §3, §4", "units": {"IC50": "nM"}, "values": [
      {"smiles": "c1ccc2c(N[C@H]3CC[C@@H](C[C@H]4CC[C@@H](Nc5c6ccccc6nc6ccccc56)CC4)CC3)c3ccccc3nc2c1", "IC50": 440},
      {"smiles": "c1ccc2c(N[C@H]3CC[C@@H](C[C@H]4CC[C@H](Nc5c6ccccc6nc6ccccc56)CC4)CC3)c3ccccc3nc2c1", "IC50": 560},
      {"smiles": "c1ccc2c(N[C@H]3CC[C@H](C[C@H]4CC[C@H](Nc5c6ccccc6nc6ccccc56)CC4)CC3)c3ccccc3nc2c1", "IC50": 500},
      {"smiles": "CC(C)(c1ccc(Oc2ccc(Nc3c4ccccc4nc4ccccc34)cc2)cc1)c1ccc(Oc2ccc(Nc3c4ccccc4nc4ccccc34)cc2)cc1", "IC50": 5400},
      {"smiles": "CC(C)(c1ccc(Nc2c3ccccc3nc3ccccc23)cc1)c1ccc(C(C)(C)c2ccc(Nc3c4ccccc4nc4ccccc34)cc2)cc1", "IC50": "> 13000"},
      {"smiles": "c1cc(Nc2c3ccccc3nc3ccccc23)cc(Oc2cccc(Oc3cccc(Nc4c5ccccc5nc5ccccc45)c3)c2)c1", "IC50": 5900},
      {"smiles": "Cc1cc2cccnc2c2ncccc12", "note": "[5-methyl-1,10-phenanthroline, reference compound]", "IC50": 2000},
      {"smiles": "Nc1c2ccccc2nc2ccccc12", "note": "[9-aminoacridine]", "IC50": 2300},
      {"smiles": "Cc1c2ccncc2c(C)c2c1[nH]c1ccccc12", "note": "[ellipticine, reference compound]", "IC50": 530}
    ]},
    {"system": "DNA", "assay": "not given", "settings": "DNA binding characteristics of acridine dimers, Le Pecq et al. 1975; cited from earlier work", "values": [
      {"smiles": "COc1ccc2nc3cc(Cl)ccc3c(NCCCNCCCCNCCCNc3c4ccc(Cl)cc4nc4ccc(OC)cc34)c2c1", "note": "[IIA]", "mode of intercalation (bis- or monofunctional)": "bisintercalated"},
      {"smiles": "COc1ccc2nc3cc(Cl)ccc3c(NCCCCNCCCNc3c4ccc(Cl)cc4nc4ccc(OC)cc34)c2c1", "note": "[IIB]", "mode of intercalation (bis- or monofunctional)": "bisintercalated"},
      {"smiles": "COc1ccc2nc3cc(Cl)ccc3c(NCCCNCCCNc3c4ccc(Cl)cc4nc4ccc(OC)cc34)c2c1", "note": "[III]", "mode of intercalation (bis- or monofunctional)": "only one of the two rings of the dimer with the shortest chain (III) of 9 angstroms was intercalated"}
    ]}
  ]
}
